Measurements published in PMC2858875 (Chemistry & biology, 2010).

Experiments:
[1] = molecular target: T1, PI3Kδ (Homo sapiens, UniProt O00329); assay: Class I PI3K kinase assay; conditions: biochemical assay, 10μM ATP
T1 sequence (O00329 1-1044): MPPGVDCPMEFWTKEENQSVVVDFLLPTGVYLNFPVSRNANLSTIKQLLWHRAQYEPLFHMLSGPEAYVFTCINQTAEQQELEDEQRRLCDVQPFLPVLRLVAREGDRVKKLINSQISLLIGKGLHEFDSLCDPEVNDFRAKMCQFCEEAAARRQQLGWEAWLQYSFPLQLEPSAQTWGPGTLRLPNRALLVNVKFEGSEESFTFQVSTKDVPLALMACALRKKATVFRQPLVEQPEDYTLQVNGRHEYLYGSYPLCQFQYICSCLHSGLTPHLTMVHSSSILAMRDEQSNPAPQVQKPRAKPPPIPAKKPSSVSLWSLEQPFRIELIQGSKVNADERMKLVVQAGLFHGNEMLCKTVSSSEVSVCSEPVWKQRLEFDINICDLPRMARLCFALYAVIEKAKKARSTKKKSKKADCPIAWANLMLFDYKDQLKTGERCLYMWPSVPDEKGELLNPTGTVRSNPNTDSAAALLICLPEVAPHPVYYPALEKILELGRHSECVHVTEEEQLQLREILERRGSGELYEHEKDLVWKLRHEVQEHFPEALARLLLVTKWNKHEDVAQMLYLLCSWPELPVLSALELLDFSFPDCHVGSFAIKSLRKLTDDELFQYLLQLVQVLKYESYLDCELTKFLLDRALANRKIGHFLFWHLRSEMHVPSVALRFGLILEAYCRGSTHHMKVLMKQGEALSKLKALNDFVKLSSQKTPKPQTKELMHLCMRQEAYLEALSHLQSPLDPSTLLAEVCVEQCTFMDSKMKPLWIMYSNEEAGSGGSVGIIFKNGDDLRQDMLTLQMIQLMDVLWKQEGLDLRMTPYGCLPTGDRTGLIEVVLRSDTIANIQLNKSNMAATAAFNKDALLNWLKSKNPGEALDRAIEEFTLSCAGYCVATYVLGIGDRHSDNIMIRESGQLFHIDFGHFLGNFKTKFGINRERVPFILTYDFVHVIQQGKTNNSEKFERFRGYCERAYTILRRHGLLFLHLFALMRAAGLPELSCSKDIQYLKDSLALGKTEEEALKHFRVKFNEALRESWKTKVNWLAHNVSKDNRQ

[2] = test system: MCP-1 stimulated Ser473 p-Akt production in THP-1 monocytes; assay: THP-1 signaling assay, MCP-1 stimulated Ser473 p-Akt; type: cell-based; conditions: 100nM MCP-1 for 5 minutes, FACS
[3] = test system: all PI3K isoforms; conditions: at 300nM; ref Camps et al., 2005; cited from earlier work
[4] = test system: M-CSF stimulated Ser473 p-Akt production in THP-1 monocytes; assay: THP-1 signaling assay, M-CSF stimulated Ser473 p-Akt; type: cell-based; conditions: 50ng/mL CSF-1 for 7 minutes, FACS
[5] = test system: HUVECs
[6] = test system: PBMC/HUVEC co-culture
[7] = test system: PBMC/HUVEC co-culture; type: cell-based, human

In the case of `O=C1NC(=O)/C(=C\c2ccc3nccnc3c2)S1` [AS605240], the “potency against PI3Kδ (in words)” value [1] is given as “do not significantly inhibit PI3Kδ at the doses tested”, the “block of MCP-1 stimulated Ser473 p-Akt production” value [2] is given as “blocked” and the “inhibition of all PI3K isoforms” value [3] is given as “inhibits all PI3K isoforms”. The “block of M-CSF stimulated Ser473 p-Akt production” value [4] was “ineffective”.
In the case of `Cc1ccccc1-n1c(Cn2cnc3c(N)ncnc32)nc2cccc(C)c2c1=O` [IC87114], the “E-selectin expression in directly stimulated HUVECs” value ([5]; 3C system) is reported as “did not inhibit E-selectin expression”.
In the case of `COc1ccc2c(c1OC)N=C(NC(=O)c1cccnc1)N1CCN=C21` [PIK90], the cell viability [6] is reported as “little effect”, the CD40 level ([6]; LPS system) is reported as “significantly reduced” and the “HUVEC viability: sulforhodamine B (SRB) protein binding” value [5] is reported as less than -0.3 log ratio. The HLA-DR level ([5]; 3C system) was “strongly inhibited”, the “urokinase receptor (CD87/uPAR) level” value ([5]; 3C system) was “strongly inhibited” and the HUVEC proliferation ([5]; HUVEC-only culture) was “inhibited HUVEC proliferation”. For the same compound, the CCL2/MCP-1 production [7] was “modest effects”, the CD38 production [7] was “modest effects” and the PBMC proliferation [7] was “decrease”.
